Test results reported in US20080132555A1, “PREPARATION AND UTILITY OF SUBSTITUTED PHENYLTETRAZOLES” (AUSPEX PHARMACEUTICALS, INC., priority 2006, published 2008).

conditions: 5 microgram per mL
Experimental: Liver microsomal stability assays were conducted at 1 mg per mL liver microsome protein with an NADPH-generating system in 2% NaHCO3 (2.2 mM NADPH, 25.6 mM glucose 6-phosphate, 6 units per mL glucose 6-phosphate dehydrogenase and 3.3 mM MgCl2). Test compounds were prepared as solutions in 20% acetonitrile-water and added to the assay mixture (final assay concentration 5 microgram per mL) and incubated at 37° C. Final concentration of acetonitrile in the assay were <1%. Aliquots (50 μL) were taken out at times 0, 15, 30, 45, and 60 minutes, and diluted with ice cold acetonitrile (200 μL) to stop the reactions. Samples were centrifuged at 12000 RPM for 10 minutes to precipitate proteins. Supernatants were transferred to microcentrifuge tubes and stored for LC/MS/MS analysis of the degradation half-life of the test compounds.

Compound | increase in the degradation half-life as compared to the non-isotopically enriched drug (losartan)
[2H]C(c1nc(Cl)c(CO)n1Cc1ccc(-c2ccccc2-c2nn[nH]n2)cc1)C([2H])([2H])C([2H])([2H])C([2H])([2H])[2H] (stereo not shown) [Example 2, d8-{2-Butyl-5-chloro-3-[2′-(2H-tetrazol-5-yl)-biphenyl-4-ylmethyl]-3H-imidazol-4-yl}-methanol] | 30-180%
[2H]C(O)c1c(Cl)nc(C([2H])C([2H])([2H])C([2H])([2H])C([2H])([2H])[2H])n1Cc1ccc(-c2ccccc2-c2nn[nH]n2)cc1 (stereo not shown) [Example 3, d9-{2-Butyl-5-chloro-3-[2′-(2H-tetrazol-5-yl)-biphenyl-4-ylmethyl]-3H-imidazol-4-yl}-methanol] | 30-180%
[2H]C(c1nc(Cl)c(C([2H])([2H])O)n1Cc1ccc(-c2ccccc2-c2nn[nH]n2)cc1)C([2H])([2H])C([2H])([2H])C([2H])([2H])[2H] (stereo not shown) [Example 4, d10-{2-Butyl-5-chloro-3-[2′-(2H-tetrazol-5-yl)-biphenyl-4-ylmethyl]-3H-imidazol-4-yl}-methanol] | 30-180%

Other lines, results leading:

increase in the degradation half-life as compared to the non-isotopically enriched drug (losartan) | Compound
30-180% | [2H]C([2H])(O)c1c(Cl)nc(CCCC)n1Cc1ccc(-c2ccccc2-c2nn[nH]n2)cc1 [Example 1, d2-{2-Butyl-5-chloro-3-[2′-(2H-tetrazol-5-yl)-biphenyl-4-ylmethyl]-3H-imidazol-4-yl}-methanol]
30-180% | [2H]C(O)c1c(Cl)nc(C([2H])([2H])CCC)n1Cc1ccc(-c2ccccc2-c2nn[nH]n2)cc1 (stereo not shown) [Example 5, d3-{2-Butyl-5-chloro-3-[2′-(2H-tetrazol-5-yl)-biphenyl-4-ylmethyl]-3H-imidazol-4-yl}-methanol]
30-180% | [2H]C([2H])(O)c1c(Cl)nc(C([2H])([2H])CCC)n1Cc1ccc(-c2ccccc2-c2nn[nH]n2)cc1 [Example 6, d4-{2-Butyl-5-chloro-3-[2′-(2H-tetrazol-5-yl)-biphenyl-4-ylmethyl]-3H-imidazol-4-yl}-methanol]

conditions: cited from earlier work

Compound | lowering of the rate of new-onset Diabetes Mellitus relative to the β-blocker atenolol [%]
CCCCc1nc(Cl)c(CO)n1Cc1ccc(-c2ccccc2-c2nn[nH]n2)cc1 [losartan, Losartan] | 25
